Experimental data published in ChEMBL document CHEMBL5523706, “Structure-based drug design of DNA minor groove binders and evaluation of their antibacterial and anticancer properties” (Eur J Med Chem, 2024).
≈ marks a conversion by molar mass, not a printed value. Calls of active or inactive are those of the source. The calls are words filed in the database; no cut-off is given here.

Assays:
[1] = tested on: Panel NCI-60 (60 carcinoma cell lines); assay: Antitumor activity against human NCI-60 cells assessed as inhibition of cell growth at 10 uM incubated for 48 hrs by SRB assay; type: functional
[2] = Dissociation constant, pKa of the compound; type: physicochemical
NHDF = assay: Cytotoxicity against human HDF cells assessed as reduction in cell viability at 50 uM incubated for 24 hrs by MTT assay; type: toxicity, cell-based
Bacillus cereus [3] = assay: Bactericidal activity against Bacillus cereus MTCC 131621 assessed as reduction in bacterial viability at 100 uM incubated for 2 hrs in autoclaved distilled water followed by culturing on agar for overnight; type: functional; details: MTCC 131621, 2 h
DNA [4] = assay: Binding affinity to d(5'-GCGACTAGTCGC-3')2 duplex DNA (unknown origin) assessed as change in enthalpy at 10 uM measured at 298K by isothermal titration calorimetry; type: nucleic-acid assay
DNA [5] = assay: Binding affinity to d(5'-GCGACTAGTCGC-3')2 duplex DNA (unknown origin) at DNA to ligand stoichiometric ratio of 0.5:1 measured at 298K by isothermal titration calorimetry; type: nucleic-acid assay
DNA [6] = assay: Binding affinity to d(5'-GCGACTAGTCGC-3')2 duplex DNA (unknown origin) assessed as change in free energy at 10 uM measured at 298K by isothermal titration calorimetry; type: nucleic-acid assay
Serratia marcescens [7] = assay: Bactericidal activity against Serratia marcescens ATCC 13880 assessed as reduction in bacterial viability at 100 uM incubated for 2 hrs in autoclaved distilled water followed by culturing on agar for overnight; type: functional
Salmonella enterica [8] = assay: Bactericidal activity against Salmonella enterica ATCC 14028 assessed as reduction in bacterial viability incubated for 2 hrs in autoclaved distilled water followed by culturing on agar for overnight; type: functional; details: ATCC 14028, 2 h
Streptococcus pneumoniae [9] = assay: Bactericidal activity against Streptococcus pneumoniae ATCC 13883 assessed as reduction in bacterial viability at 100 uM incubated for 2 hrs in autoclaved distilled water followed by culturing on agar for overnight; type: functional; details: for inhibition at 100 µM: ATCC 13883, 2 h
DNA [10] = assay: Binding affinity to d(5'-GCGACTAGTCGC-3')2 duplex DNA (unknown origin) assessed as change in entropy at 10 uM measured at 298K by isothermal titration calorimetry; type: nucleic-acid assay
DNA [11] = assay: Binding affinity to d(5'-GCGACTAGTCGC-3')2 duplex DNA (unknown origin) at 10 uM measured at 298K by isothermal titration calorimetry; type: nucleic-acid assay
[12] = Cytotoxicity against human HDF cells assessed as reduction in cell viability at 50 uM incubated for 24 hrs by MTT assay relative to control; type: toxicity, cell-based; details: HDF cells (NHDF cell line), read-out: INH
Salmonella enterica [13] = assay: Bactericidal activity against Salmonella enterica ATCC 14028 assessed as reduction in bacterial viability at 100 uM incubated for 2 hrs in autoclaved distilled water followed by culturing on agar for overnight; type: functional; details: ATCC 14028, 2 h
Salmonella enterica [14] = assay: Antibacterial activity against Salmonella enterica assessed as reduction in bacteria-mediated cytopathogenicity pretreated with bacteria followed by incubation with human cells; type: functional
Streptococcus pyogenes [15] = assay: Bactericidal activity against Streptococcus pyogenes ATCC 49399 assessed as reduction in bacterial viability at 100 uM incubated for 2 hrs in autoclaved distilled water followed by culturing on agar for overnight; type: functional; details: for inhibition at 100 µM: ATCC 49399, 2 h
Streptococcus pneumoniae [16] = assay: Bactericidal activity against Streptococcus pneumoniae ATCC 13883 assessed as reduction in bacterial viability incubated for 2 hrs in autoclaved distilled water followed by culturing on agar for overnight; type: functional; details: ATCC 13883, 2 h
Escherichia coli [17] = assay: Bactericidal activity against Escherichia coli K1 MTCC 710859 assessed as reduction in bacterial viability at 100 uM incubated for 2 hrs in autoclaved distilled water followed by culturing on agar for overnight; type: functional; details: for inhibition at 100 µM: K1 MTCC 710859, 2 h
Bacillus cereus [18] = assay: Bactericidal activity against Bacillus cereus MTCC 131621 assessed as reduction in bacterial viability incubated for 2 hrs in autoclaved distilled water followed by culturing on agar for overnight; type: functional; details: MTCC 131621, 2 h
DNA [19] = assay: Binding affinity to minor groove of d(5'-GCGACTAGTCGC3')2 duplex DNA (unknown origin) assessed as change in melting temperature at 2 equiv. in presence of 8 uM DNA measured at 30 to 100 degC by UV spectrophotometric analysis; type: nucleic-acid assay
Bacillus cereus [20] = assay: Antibacterial activity against Bacillus cereus assessed as reduction in bacteria-mediated cytopathogenicity pretreated with bacteria followed by incubation with human cells; type: functional
Escherichia coli [21] = assay: Bactericidal activity against Escherichia coli K1 MTCC 710859 assessed as reduction in bacterial viability incubated for 2 hrs in autoclaved distilled water followed by culturing on agar for overnight; type: functional; details: K1 MTCC 710859, 2 h
Streptococcus pyogenes [22] = assay: Bactericidal activity against Streptococcus pyogenes ATCC 49399 assessed as reduction in bacterial viability incubated for 2 hrs in autoclaved distilled water followed by culturing on agar for overnight; type: functional; details: ATCC 49399, 2 h
Serratia marcescens [23] = assay: Bactericidal activity against Serratia marcescens ATCC 13880 assessed as reduction in bacterial viability incubated for 2 hrs in autoclaved distilled water followed by culturing on agar for overnight; type: functional; details: ATCC 13880, 2 h

Row | pKa [2] | ΔTm (DNA [19]) [°C] | Compound | inhibition at 10 µM [1] [%] | Activity (NHDF) | inhibition at 100 µM (Bacillus cereus [3]) [%] | Activity (Serratia marcescens [7]) | cytotoxicity at 24 h, 50 µM [12] [%] | inhibition (INH) (Salmonella enterica [14]) [%] | inhibition (INH) (Bacillus cereus [20]) [%] | also measured
1 | 9.3 |  | CN(C)CCCNC(=O)c1cc(NC(=O)c2cc(NC(=O)c3ccc(C#Cc4ccccc4)cc3)cn2C)cn1C | 126 |  | 59 |  |  |  |  | 
2 | 7.01 |  | Cn1cc(NC(=O)c2cc(NC(=O)CCSc3ccc4ccccc4c3)cn2C)cc1C(=O)NCCCN1CCOCC1 | 7.46 |  |  | inactive | 20 |  |  | 
3 | 7.01 | 21 | Cn1cc(NC(=O)c2cc(NC(=O)c3ccc(/C=C/c4ccccc4)cc3)cn2C)cc1C(=O)NCCCN1CCOCC1 | 94.1 | Non-Toxic | 87 | inactive |  | 44 | 70 | MIC90 (Escherichia coli [21]): 76 µM (≈ 45.2 µg/mL); inhibition at 100 µM (Streptococcus pneumoniae [9]): 100%; inhibition at 100 µM (Salmonella enterica [13]): 95%; inhibition at 100 µM (Streptococcus pyogenes [15]): 67%; MIC90 (Streptococcus pneumoniae [16]): 47 µM (≈ 28 µg/mL); inhibition at 100 µM (Escherichia coli [17]): 50%; MIC50 (Bacillus cereus [18]): 37 µM (≈ 22 µg/mL); MIC90 (Bacillus cereus [18]): 34.3 µM (≈ 20.4 µg/mL); MIC90 (Streptococcus pyogenes [22]): 55 µM (≈ 32.7 µg/mL)
4 | 7.01 | 22 | Cn1cc(NC(=O)c2cc(NC(=O)c3ccc(C#Cc4ccccc4)cc3)cn2C)cc1C(=O)NCCCN1CCOCC1 | 97.7 |  | 98 |  | 20 | 30 | 74 | MIC90 (Escherichia coli [21]): 106 µM (≈ 62.8 µg/mL); MIC90 (Serratia marcescens [23]): 88 µM (≈ 52.2 µg/mL); inhibition at 100 µM (Serratia marcescens [7]; ATCC 13880, 2 h): 80%; MIC50 (Salmonella enterica [8]): 58 µM (≈ 34.4 µg/mL); MIC90 (Salmonella enterica [8]): 117 µM (≈ 69.1 µg/mL); inhibition at 100 µM (Streptococcus pneumoniae [9]): 97%; inhibition at 100 µM (Salmonella enterica [13]): 90%; inhibition at 100 µM (Streptococcus pyogenes [15]): 83%; MIC90 (Streptococcus pneumoniae [16]): 53 µM (≈ 31.4 µg/mL); inhibition at 100 µM (Escherichia coli [17]): 40%; MIC90 (Streptococcus pyogenes [22]): 51 µM (≈ 30.2 µg/mL)

The remaining lines, values behind:

Row | Compound | pKa [2] | ΔTm (DNA [19]) [°C] | inhibition at 10 µM [1] [%] | Activity (NHDF) | inhibition at 100 µM (Bacillus cereus [3]) [%] | Activity (Serratia marcescens [7]) | cytotoxicity at 24 h, 50 µM [12] [%] | inhibition (INH) (Salmonella enterica [14]) [%] | inhibition (INH) (Bacillus cereus [20]) [%] | also measured
5 | Cc1ccc(CSCCC(=O)Nc2cc(C(=O)Nc3cc(C(=O)NCCCN4CCOCC4)n(C)c3)n(C)c2)cc1 | 7.01 |  | 2.57 | Non-Toxic |  |  |  |  |  | 
6 | CN(C)CCCNC(=O)c1cc(NC(=O)c2cc(NC(=O)c3cc(NC(=O)c4nccn4C)cn3C)cn2C)cn1C | 9.3 |  | -3.79 | Toxic |  |  |  |  |  | 
7 | CC(C)c1sc(NC(=O)c2cc(NC(=O)c3cc(NC(=O)c4nccn4C)cn3C)cn2C)nc1C(=O)NCCCN(C)C | 9.3 | 18 | 24.1 |  | 63 | inactive | 20 | 77 | 90 | deltaH (DNA [4]): -20.6 kcal/mol; Activity (DNA [5]): Active; deltaG (DNA [6]): -8.41 kcal/mol; MIC50 (Salmonella enterica [8]): 64 µM (≈ 39.9 µg/mL); MIC90 (Salmonella enterica [8]): 101 µM (≈ 62.8 µg/mL); inhibition at 100 µM (Streptococcus pneumoniae [9]): 60%; TdeltaS (DNA [10]): -12.2 kcal/mol; K (DNA [11]): 1.42 10^6/M; inhibition at 100 µM (Salmonella enterica [13]): 60%; Activity (Streptococcus pyogenes [15]): inactive; MIC90 (Streptococcus pneumoniae [16]): 67 µM (≈ 41.7 µg/mL); Activity (Escherichia coli [17]): inactive; MIC50 (Bacillus cereus [18]): 28 µM (≈ 17.4 µg/mL); MIC90 (Bacillus cereus [18]): 33.7 µM (≈ 21 µg/mL)
8 | Cc1ccc(CSCCC(=O)Nc2cc(C(=O)Nc3cc(C(=O)NCCCN(C)C)n(C)c3)n(C)c2)cc1 | 9.3 |  | 2.57 |  |  |  | 20 |  |  | 
9 | CC(C)c1sc(NC(=O)c2cc(NC(=O)c3cc(NC(=O)c4cscn4)cn3C)cn2C)nc1C(=O)NCCCN(C)C | 9.3 | 20 | 92.4 |  | 42 | inactive | 20 | 41 | 40 | deltaH (DNA [4]): -19 kcal/mol; Activity (DNA [5]): Active; deltaG (DNA [6]): -8.46 kcal/mol; MIC50 (Salmonella enterica [8]): 52 µM (≈ 32.5 µg/mL); MIC90 (Salmonella enterica [8]): 134 µM (≈ 83.9 µg/mL); Activity (Streptococcus pneumoniae [9]): inactive; TdeltaS (DNA [10]): -10.5 kcal/mol; K (DNA [11]): 2 10^6/M; Activity (Streptococcus pyogenes [15]): inactive; Activity (Escherichia coli [17]): inactive
10 | CN(C)CCCNC(=O)c1cc(NC(=O)c2cc(NC(=O)c3cc(NC(=O)c4cscn4)cn3C)cn2C)cn1C | 9.3 |  |  |  |  |  | 20 |  |  | 
11 | CN(C)CCCNC(=O)c1cc(NC(=O)c2cc(NC(=O)c3ccc(/C=C/c4ccccc4)cc3)cn2C)cn1C | 9.3 |  | 64.1 | Toxic |  |  |  |  |  | 
